The results in this text go back to publication PMC6120666 (The EMBO Journal, 2018).

Holding throughout (assay): Drug affinity chromatography with c-ponatinib and LC-MS/MS (ponatinib interactome)
Holding throughout (type): binding

Assay [1] concerns the target T1, proteins of U2OS cell lysate (Homo sapiens, UniProt P62854).
T1 construct: Proteins enriched by c-ponatinib from U2OS cell lysate; endogenous in cells; host or cells: U2OS cell lysate
The settings on record: RPS26;RPS26P11, 40S ribosomal protein S26. An outline of the steps: (§1)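 Proteins were identified by nano-UPLC–MS/MS after elution with formic acid and trypsin digestion. They were captured from U2OS lysate (2 mg protein per pulldown, NP-40 buffer) on amine-coupled NHS beads during a 2 h incubation at 4 °C.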

In assay [2] the target is T2, proteins of U2OS cell lysate (Homo sapiens, UniProt Q9P0K7).
T2 construct: Proteins enriched by c-ponatinib from U2OS cell lysate; endogenous in cells; host or cells: U2OS cell lysate
The following applies: RAI14, Ankycorbin. The method, boiled down:
as §1

The target in assay [3] is T3, proteins of U2OS cell lysate (Homo sapiens, UniProt Q8WWI1).
T3 construct: Proteins enriched by c-ponatinib from U2OS cell lysate; endogenous in cells; host or cells: U2OS cell lysate
The following applies: LMO7, LIM domain only protein 7. The method, boiled down:
as §1

Assay [4] has as its target T4, proteins of U2OS cell lysate (Homo sapiens, UniProt Q9UJZ1).
T4 construct: Proteins enriched by c-ponatinib from U2OS cell lysate; endogenous in cells; host or cells: U2OS cell lysate
The settings on record: STOML2, Stomatin-like protein 2, mitochondrial. An outline of the steps:
as §1

For assay [5], the target named is T5, proteins of U2OS cell lysate (Homo sapiens, UniProt Q13011).
T5 construct: Proteins enriched by c-ponatinib from U2OS cell lysate; endogenous in cells; host or cells: U2OS cell lysate
The following applies: ECH1, Delta(3,5)-Delta(2,4)-dienoyl-CoA isomerase, mitochondrial. An outline of the steps:
as §1

Assay [6] deals with T6, proteins of U2OS cell lysate (Homo sapiens, UniProt Q96RR4).
T6 construct: Proteins enriched by c-ponatinib from U2OS cell lysate; endogenous in cells; host or cells: U2OS cell lysate
The following applies: CAMKK2, Calcium/calmodulin-dependent protein kinase kinase 2. The method, boiled down:
as §1

Assay [7] concerns the target T7, proteins of U2OS cell lysate (Homo sapiens, UniProt Q14680).
T7 construct: Proteins enriched by c-ponatinib from U2OS cell lysate; endogenous in cells; host or cells: U2OS cell lysate
The settings on record: MELK, Maternal embryonic leucine zipper kinase. The method, boiled down: as §1

In assay [8] the target is T8, proteins of U2OS cell lysate (Homo sapiens, UniProt P05141).
T8 construct: Proteins enriched by c-ponatinib from U2OS cell lysate; endogenous in cells; host or cells: U2OS cell lysate
The settings on record: SLC25A5;SLC25A6;SLC25A4, ADP/ATP translocase 2. An outline of the steps:
as §1

For assay [9], the target named is T9, proteins of U2OS cell lysate (Homo sapiens, UniProt Q00610).
T9 construct: Proteins enriched by c-ponatinib from U2OS cell lysate; endogenous in cells; host or cells: U2OS cell lysate
The following applies: CLTC, Clathrin heavy chain 1. The method, boiled down:
as §1

Assay [10] concerns the target T10, proteins of U2OS cell lysate (Homo sapiens, UniProt Q9Y2D5).
T10 construct: Proteins enriched by c-ponatinib from U2OS cell lysate; endogenous in cells; host or cells: U2OS cell lysate
The following applies: AKAP2, A-kinase anchor protein 2. The method, boiled down: as §1

The target of assay [11] is T11, proteins of U2OS cell lysate (Homo sapiens, UniProt O43318).
T11 construct: Proteins enriched by c-ponatinib from U2OS cell lysate; endogenous in cells; host or cells: U2OS cell lysate
The following applies: MAP3K7;DKFZp586F0420, Mitogen-activated protein kinase kinase kinase 7. The method, boiled down:
as §1

The target in assay [12] is T12, proteins of U2OS cell lysate (Homo sapiens, UniProt Q8TEX9).
T12 construct: Proteins enriched by c-ponatinib from U2OS cell lysate; endogenous in cells; host or cells: U2OS cell lysate
The following applies: IPO4, Importin-4. An outline of the steps:
as §1

Assay [13] concerns the target T13, proteins of U2OS cell lysate (Homo sapiens, UniProt P78371).
T13 construct: Proteins enriched by c-ponatinib from U2OS cell lysate; endogenous in cells; host or cells: U2OS cell lysate
The settings on record: CCT2, T-complex protein 1 subunit beta. An outline of the steps: as §1

For assay [14], the target named is T14, proteins of U2OS cell lysate (Homo sapiens, UniProt O94921).
T14 construct: Proteins enriched by c-ponatinib from U2OS cell lysate; endogenous in cells; host or cells: U2OS cell lysate
The following applies: CDK14, Cyclin-dependent kinase 14. The method, boiled down: as §1

Assay [15] has as its target T15, proteins of U2OS cell lysate (Homo sapiens, UniProt P27816).
T15 construct: Proteins enriched by c-ponatinib from U2OS cell lysate; endogenous in cells; host or cells: U2OS cell lysate
The settings on record: MAP4, Microtubule-associated protein 4. The method, boiled down: as §1

In assay [16] the target is T16, proteins of U2OS cell lysate (Homo sapiens, UniProt Q9H2K8).
T16 construct: Proteins enriched by c-ponatinib from U2OS cell lysate; endogenous in cells; host or cells: U2OS cell lysate
The following applies: TAOK3;TAOK1;TAOK2, Serine/threonine-protein kinase TAO3. The method, boiled down:
as §1

Assay [17] has as its target T17, proteins of U2OS cell lysate (Homo sapiens, UniProt P43487).
T17 construct: Proteins enriched by c-ponatinib from U2OS cell lysate; endogenous in cells; host or cells: U2OS cell lysate
The settings on record: RANBP1, Ran-specific GTPase-activating protein. The method, boiled down: as §1

For assay [18], the target named is T18, proteins of U2OS cell lysate (Homo sapiens, UniProt Q9HAV4).
T18 construct: Proteins enriched by c-ponatinib from U2OS cell lysate; endogenous in cells; host or cells: U2OS cell lysate
The following applies: captured protein XPO5, Rank 207. An outline of the steps: as §1

T14 sequence (O94921 whole entry): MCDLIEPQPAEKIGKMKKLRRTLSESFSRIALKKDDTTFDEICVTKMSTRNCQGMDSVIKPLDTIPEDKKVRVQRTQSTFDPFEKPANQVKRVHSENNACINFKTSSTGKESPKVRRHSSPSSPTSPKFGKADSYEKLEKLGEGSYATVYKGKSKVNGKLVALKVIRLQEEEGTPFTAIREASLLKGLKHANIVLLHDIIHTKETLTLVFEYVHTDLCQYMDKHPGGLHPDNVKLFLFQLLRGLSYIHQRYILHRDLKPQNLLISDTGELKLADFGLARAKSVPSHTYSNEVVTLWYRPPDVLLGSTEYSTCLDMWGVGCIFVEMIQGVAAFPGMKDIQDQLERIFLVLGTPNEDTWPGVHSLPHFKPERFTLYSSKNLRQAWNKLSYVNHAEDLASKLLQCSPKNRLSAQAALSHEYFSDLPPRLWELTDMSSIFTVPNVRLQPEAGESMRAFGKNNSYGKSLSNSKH
T18 sequence (Q9HAV4 whole entry): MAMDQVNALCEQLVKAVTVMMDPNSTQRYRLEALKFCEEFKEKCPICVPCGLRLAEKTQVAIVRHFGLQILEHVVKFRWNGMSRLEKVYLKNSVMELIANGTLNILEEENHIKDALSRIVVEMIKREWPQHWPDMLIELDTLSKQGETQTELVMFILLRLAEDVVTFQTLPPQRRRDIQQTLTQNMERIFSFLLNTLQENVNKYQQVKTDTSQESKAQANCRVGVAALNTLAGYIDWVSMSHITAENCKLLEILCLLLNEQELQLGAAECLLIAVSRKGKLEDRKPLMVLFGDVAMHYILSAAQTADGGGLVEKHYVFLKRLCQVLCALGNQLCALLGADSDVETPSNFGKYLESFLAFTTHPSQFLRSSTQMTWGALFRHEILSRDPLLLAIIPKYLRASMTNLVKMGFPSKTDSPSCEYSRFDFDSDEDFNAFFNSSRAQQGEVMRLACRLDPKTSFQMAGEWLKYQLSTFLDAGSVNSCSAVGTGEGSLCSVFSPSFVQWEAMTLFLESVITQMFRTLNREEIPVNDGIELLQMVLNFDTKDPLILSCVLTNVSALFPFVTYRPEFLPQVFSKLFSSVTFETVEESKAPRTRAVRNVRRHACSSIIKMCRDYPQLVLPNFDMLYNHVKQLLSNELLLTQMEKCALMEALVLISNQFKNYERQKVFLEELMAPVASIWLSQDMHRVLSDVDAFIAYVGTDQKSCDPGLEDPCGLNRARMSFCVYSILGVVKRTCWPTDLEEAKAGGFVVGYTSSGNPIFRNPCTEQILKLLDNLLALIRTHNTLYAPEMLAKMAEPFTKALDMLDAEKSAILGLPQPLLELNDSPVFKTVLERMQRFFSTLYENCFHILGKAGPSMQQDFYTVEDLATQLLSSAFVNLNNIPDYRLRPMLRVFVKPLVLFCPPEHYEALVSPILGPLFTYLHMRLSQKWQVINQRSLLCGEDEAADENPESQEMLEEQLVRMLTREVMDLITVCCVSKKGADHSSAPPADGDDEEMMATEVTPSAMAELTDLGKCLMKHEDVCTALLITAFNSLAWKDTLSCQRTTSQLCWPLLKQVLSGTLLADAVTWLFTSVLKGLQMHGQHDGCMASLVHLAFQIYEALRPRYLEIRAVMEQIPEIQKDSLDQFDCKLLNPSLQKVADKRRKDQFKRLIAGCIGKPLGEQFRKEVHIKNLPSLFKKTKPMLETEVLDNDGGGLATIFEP
T13 sequence (P78371 whole entry): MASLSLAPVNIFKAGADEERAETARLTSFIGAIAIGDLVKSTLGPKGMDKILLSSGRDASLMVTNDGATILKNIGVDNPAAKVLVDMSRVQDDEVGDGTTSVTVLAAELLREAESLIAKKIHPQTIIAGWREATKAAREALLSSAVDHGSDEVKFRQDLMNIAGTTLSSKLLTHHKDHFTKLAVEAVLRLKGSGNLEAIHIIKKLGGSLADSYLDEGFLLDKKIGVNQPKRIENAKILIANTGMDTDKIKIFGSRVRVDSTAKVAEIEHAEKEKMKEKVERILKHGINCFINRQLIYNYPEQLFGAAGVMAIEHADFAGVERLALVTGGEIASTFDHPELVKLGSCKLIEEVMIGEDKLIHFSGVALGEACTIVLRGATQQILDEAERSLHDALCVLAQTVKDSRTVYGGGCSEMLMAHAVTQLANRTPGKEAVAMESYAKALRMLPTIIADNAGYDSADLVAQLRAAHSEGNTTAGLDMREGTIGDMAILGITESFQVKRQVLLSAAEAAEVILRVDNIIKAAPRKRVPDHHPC
T3 sequence (Q8WWI1 whole entry): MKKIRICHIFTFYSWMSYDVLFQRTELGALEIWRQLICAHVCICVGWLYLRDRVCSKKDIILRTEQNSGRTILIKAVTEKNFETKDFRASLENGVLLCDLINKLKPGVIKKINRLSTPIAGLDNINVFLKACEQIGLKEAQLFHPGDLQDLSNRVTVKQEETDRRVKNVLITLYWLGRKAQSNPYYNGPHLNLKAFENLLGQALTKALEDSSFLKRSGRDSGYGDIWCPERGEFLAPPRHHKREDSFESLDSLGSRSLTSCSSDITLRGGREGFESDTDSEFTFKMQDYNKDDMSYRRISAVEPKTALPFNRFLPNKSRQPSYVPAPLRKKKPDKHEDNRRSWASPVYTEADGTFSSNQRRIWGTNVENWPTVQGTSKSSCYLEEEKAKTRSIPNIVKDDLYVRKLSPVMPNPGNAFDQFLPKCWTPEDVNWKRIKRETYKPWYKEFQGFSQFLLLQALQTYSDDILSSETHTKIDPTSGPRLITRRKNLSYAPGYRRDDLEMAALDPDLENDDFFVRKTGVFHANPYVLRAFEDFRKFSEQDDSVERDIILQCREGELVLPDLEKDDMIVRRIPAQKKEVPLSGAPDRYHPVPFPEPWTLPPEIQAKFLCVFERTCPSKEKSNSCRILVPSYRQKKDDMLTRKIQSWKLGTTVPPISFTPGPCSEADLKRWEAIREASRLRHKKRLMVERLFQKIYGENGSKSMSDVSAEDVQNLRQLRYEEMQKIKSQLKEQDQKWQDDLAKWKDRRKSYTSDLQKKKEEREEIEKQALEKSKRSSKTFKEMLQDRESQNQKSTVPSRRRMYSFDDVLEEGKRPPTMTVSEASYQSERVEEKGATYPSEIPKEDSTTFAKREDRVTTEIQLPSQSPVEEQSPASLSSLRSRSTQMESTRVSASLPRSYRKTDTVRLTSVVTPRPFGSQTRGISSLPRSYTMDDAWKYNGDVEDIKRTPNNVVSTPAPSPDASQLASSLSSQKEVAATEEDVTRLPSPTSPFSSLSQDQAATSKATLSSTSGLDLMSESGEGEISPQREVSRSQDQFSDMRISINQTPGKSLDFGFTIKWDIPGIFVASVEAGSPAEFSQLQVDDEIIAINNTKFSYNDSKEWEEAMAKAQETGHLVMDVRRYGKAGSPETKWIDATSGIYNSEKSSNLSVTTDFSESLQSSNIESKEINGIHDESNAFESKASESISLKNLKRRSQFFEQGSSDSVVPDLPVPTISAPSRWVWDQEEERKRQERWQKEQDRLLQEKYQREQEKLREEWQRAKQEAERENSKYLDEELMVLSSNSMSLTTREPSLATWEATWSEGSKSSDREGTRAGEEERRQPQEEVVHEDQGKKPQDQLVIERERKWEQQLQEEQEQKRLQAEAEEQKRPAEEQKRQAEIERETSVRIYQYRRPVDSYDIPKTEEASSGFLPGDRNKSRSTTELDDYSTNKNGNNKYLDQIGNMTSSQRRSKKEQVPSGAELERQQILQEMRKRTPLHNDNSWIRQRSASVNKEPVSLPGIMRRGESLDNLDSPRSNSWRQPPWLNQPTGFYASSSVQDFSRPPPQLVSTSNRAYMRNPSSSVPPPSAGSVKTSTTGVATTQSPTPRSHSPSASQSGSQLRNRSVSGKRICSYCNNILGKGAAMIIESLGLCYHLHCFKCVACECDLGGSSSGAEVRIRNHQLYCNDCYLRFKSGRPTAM
T7 sequence (Q14680 whole entry): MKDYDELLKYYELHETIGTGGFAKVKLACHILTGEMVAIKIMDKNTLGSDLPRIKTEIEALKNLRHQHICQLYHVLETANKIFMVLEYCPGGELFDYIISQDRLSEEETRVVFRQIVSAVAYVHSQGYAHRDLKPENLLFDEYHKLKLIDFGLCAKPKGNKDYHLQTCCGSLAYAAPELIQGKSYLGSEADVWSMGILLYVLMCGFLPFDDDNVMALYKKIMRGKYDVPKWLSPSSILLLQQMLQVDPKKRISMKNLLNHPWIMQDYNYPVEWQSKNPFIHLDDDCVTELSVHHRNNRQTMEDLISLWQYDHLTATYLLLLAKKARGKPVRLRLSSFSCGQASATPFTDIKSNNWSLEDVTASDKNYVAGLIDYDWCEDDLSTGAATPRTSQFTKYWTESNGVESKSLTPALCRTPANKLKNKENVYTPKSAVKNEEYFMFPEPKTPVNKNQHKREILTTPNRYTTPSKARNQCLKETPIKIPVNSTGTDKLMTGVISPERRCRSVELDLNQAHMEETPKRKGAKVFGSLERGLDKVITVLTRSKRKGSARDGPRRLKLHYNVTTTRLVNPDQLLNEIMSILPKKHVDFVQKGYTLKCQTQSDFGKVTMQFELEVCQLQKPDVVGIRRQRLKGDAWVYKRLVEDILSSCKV
T4 sequence (Q9UJZ1 29-356): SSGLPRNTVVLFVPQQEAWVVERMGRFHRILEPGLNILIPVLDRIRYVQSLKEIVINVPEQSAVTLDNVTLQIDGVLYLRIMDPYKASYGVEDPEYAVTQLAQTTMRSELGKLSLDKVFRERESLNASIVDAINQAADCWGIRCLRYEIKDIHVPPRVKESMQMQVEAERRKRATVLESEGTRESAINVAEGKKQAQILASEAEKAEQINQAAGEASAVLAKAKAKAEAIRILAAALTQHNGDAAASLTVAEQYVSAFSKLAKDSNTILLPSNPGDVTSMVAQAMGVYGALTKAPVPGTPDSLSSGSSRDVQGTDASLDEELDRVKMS
T17 sequence (P43487 whole entry): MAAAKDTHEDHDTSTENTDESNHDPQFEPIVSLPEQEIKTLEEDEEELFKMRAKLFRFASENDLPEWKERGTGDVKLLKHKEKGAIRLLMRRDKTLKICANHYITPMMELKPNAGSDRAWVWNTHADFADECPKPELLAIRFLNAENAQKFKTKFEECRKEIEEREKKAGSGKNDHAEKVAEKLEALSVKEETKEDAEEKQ

Consider `Cc1ccc(C(=O)Nc2ccc(CN3CCN(C)CC3)c(C(F)(F)F)c2)cc1C#Cc1cnc2cccnn12` [PON], for which the “Average LFQ PON_WT” value in assay [1] came out at 21.6239; in assay [2], 19.7116; in [3], 20.1594; in assay [4] it was 26.1635; in [5], 25.3624; in assay [6] it was 20.0519. The “Average LFQ PON_WT” value is 24.1941 in assay [7]; 25.3771 in assay [8]; 26.5716 in [9]; 19.1683 in [10]; 25.3656 in assay [11]; 20.7176 in assay [12]. For the same compound, the “Average LFQ PON_WT” value is on record as 24.048 in [13]; 25.6287 in assay [14]; 23.7532 in assay [15]; 21.1056 in [16]; 20.4588 in assay [17].
For the compound `Cc1ccc(C(=O)Nc2ccc(CN3CCN(CCCN)CC3)c(C(F)(F)F)c2)cc1C#Cc1cnc2cccnn12` [c-ponatinib, reference compound], the “Average LFQ intensity” value in [18] is recorded as 21.7615.
